In one test the target is human mGluR5 (Homo sapiens, UniProt P41594). The test is described as follows: Cell-based functional Ca2+ mobilization assay, potentiation of glutamate EC20 response (H10H cell-line). The conditions noted are these: H10H cell-line expressing recombinant human mGluR5. A digest of the protocol:
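H10H HEK293A cells expressing human mGluR5a were loaded with 2 μM fluo-4 AM in HBSS/20 mM HEPES/2.5 mM probenecid pH 7.4 and read on an FDSS 6000. Compound was added after a ~3 s baseline, followed 2.3 min later by an EC20 glutamate concentration; potentiation EC50 came from non-linear curve fitting.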
(Calcium assays in cells follow changes in intracellular calcium, usually with a dye or a luminescent sensor.)

Test [1] relates to amphetamine-induced hyperlocomotion. The test is described as follows: Reversal of amphetamine-induced hyperlocomotion. It counts as in vivo, rat. The conditions noted are these: male Sprague-Dawley rats; test compound po in 20% HP-β-CD; amphetamine sulfate 1 mg/kg sc. As to the method:
Locomotor activity was assessed as mean distance traveled (cm) in standard 16×16 photocell testing chambers measuring 43.2 cm (Length)×43.2 cm (Width)×30.5 cm (Height) (Med Associates, St. Albans, Vt.). Animals were habituated to individual activity chambers for at least 30 min prior to drug administration. Following administration of drug or vehicle, activity was recorded for a 90 minute time period. Data was expressed as the mean (±SEM) distance traveled recorded in 5 min intervals over the test period. The data was analyzed using repeated measures analysis of variance (ANOVA) followed by post-hoc testing using Dunnett's test, when appropriate. A difference was considered significant when p≦0.05. […]
The animals were habituated in Smart Open Field locomotor activity test chambers (Hamilton-Kinder, San Diego, Calif.) with 16×16 photobeams to automatically record locomotor activity for 30 min and then dosed with vehicle or test compound. […] At 60 min, all rats were injected subcutaneously with 1 mg/kg amphetamine or vehicle and then monitored for an additional 60 min. Animals are monitored for a total of 120 minutes. Data are expressed as changes in ambulation defined as total number of beam breaks per 5 min periods.
The data for the dose-response studies were analyzed by a between-group analysis of variance. […]

human mGluR5, sequence (P41594 21-1180 isoform P41594-2 limits assumed): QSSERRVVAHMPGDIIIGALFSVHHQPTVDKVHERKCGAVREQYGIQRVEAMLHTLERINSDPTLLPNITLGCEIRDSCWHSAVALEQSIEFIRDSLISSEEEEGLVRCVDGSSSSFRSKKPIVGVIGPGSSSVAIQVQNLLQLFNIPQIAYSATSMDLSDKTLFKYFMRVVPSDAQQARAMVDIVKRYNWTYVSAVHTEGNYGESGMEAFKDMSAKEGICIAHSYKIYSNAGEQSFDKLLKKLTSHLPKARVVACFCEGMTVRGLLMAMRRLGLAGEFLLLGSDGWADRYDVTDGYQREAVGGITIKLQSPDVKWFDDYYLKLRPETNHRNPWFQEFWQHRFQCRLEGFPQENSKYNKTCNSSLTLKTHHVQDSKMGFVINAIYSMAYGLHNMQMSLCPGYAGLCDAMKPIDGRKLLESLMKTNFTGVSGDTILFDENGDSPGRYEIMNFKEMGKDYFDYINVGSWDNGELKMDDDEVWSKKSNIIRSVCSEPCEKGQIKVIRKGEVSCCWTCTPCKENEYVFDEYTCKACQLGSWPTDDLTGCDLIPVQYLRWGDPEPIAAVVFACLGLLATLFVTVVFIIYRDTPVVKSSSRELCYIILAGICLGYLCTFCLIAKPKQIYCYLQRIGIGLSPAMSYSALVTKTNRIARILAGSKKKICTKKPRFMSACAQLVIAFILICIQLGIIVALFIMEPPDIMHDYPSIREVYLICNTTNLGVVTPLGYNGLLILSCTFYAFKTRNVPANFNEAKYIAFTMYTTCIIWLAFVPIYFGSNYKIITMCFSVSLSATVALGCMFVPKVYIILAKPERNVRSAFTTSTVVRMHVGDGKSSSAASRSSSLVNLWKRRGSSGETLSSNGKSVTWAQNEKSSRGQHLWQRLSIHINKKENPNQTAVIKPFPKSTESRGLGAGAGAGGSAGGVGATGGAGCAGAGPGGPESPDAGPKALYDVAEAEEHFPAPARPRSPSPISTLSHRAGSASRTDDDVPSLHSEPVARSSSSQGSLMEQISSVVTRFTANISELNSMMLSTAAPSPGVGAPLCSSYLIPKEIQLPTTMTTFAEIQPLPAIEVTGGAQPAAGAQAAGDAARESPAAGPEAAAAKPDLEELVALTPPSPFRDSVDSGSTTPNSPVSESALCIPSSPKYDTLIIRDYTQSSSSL

In general, Emax refers to the maximal effect, on the per cent scale that the assay sets. One may read the EC50 as the concentration at which the effect is half-maximal. As for `O=C(c1ccc(F)cc1)N1CCc2nc(COc3ccccc3)oc2C1` [Example B1, 5-[(4-fluorophenyl)carbonyl]-2-(phenoxymethyl)-4,5,6,7-tetrahydro[1,3]oxazolo[5,4-c]pyridine], on human mGluR5 (in presence of glutamate EC20, normalized to maximal glutamate response), the Emax came to 84%. Besides, at human mGluR5 (potentiation in presence of glutamate EC20), the EC50 is 380 nM. For the same compound, the “reversal of amphetamine-induced hyperlocomotion” value in test [1] is listed as “Dose-dependent results for reversal of amphetamine-induced hyperlocomotion”.
